This assay concerns the target T1, ACE2 (angiotensin-converting enzyme 2) (Homo sapiens, UniProt Q9BYF1).
T1 construct: recombinant human ACE2, His-tag and Strep-tag, from Sf9 insect cells
In words: SPR (Biacore T200, immobilized ACE2, […] kinetic model). The assay is classed as binding.

T1 sequence (Q9BYF1 18-805): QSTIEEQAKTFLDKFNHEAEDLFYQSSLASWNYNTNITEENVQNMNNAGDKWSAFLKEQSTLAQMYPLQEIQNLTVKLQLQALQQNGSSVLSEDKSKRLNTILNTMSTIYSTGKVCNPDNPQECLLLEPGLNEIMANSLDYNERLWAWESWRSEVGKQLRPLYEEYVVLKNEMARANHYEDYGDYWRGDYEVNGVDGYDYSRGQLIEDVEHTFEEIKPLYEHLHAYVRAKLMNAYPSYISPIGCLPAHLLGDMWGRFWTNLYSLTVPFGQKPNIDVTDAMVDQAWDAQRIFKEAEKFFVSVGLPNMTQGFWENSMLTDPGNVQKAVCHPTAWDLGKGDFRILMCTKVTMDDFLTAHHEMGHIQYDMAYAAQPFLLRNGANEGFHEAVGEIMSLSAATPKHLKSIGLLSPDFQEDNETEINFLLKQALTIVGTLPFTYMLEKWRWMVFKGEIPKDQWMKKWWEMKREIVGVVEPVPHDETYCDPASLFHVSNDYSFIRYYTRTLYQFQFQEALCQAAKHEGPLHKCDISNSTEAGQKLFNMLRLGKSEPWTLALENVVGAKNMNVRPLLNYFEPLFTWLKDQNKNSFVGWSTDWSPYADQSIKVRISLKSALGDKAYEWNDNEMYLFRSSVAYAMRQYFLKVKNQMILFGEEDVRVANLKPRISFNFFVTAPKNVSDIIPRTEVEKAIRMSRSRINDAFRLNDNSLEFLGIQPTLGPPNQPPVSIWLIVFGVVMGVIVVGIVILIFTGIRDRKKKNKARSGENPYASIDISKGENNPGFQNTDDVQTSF

For the compound `CCCCc1nc(Cl)c(CO)n1Cc1ccc(-c2ccccc2-c2nn[nH]n2)cc1` [losartan], the Kd came to 13.7 nM.

As usually defined, the Kd is the free concentration of one partner at which half of the binding sites on the other are occupied at equilibrium, for simple one-to-one binding.

The record behind these values is article PMC10179460, “Computational and Enzymatic Studies of Sartans in SARS-CoV-2 Spike RBD-ACE2 Binding: The Role of Tetrazole and Perspectives as Antihypertensive and COVID-19 Therapeutics” (International Journal of Molecular Sciences, 2023).
